For test [1], the system named is ESCs [SHEF1]. As to the kind of experiment: Immunofluorescence of endoderm markers FoxA2 and HNF4α, percent positive cells. Conditions: 5 days. It is filed as cell-based, human. The protocol:
(§1) (A) RNA was extracted from ESCs [SHEF1] cultured for 7 days in the presence of 2 μM 1M for the days indicated. RT-PCR analyses were performed using primers selective for the genes indicated. (B) ESCs [SHEF1] were treated with 2 μM 1M alone or in combination with 10 μM SB43125 (S) for the days indicated and RT-PCR performed on the extracted RNA. (C) ESCs [SHEF3] were treated with 1M alone or in combination with 100 ng/ml Activin A (A) for the days indicated and RT-PCR performed. (D). ESCs [SHEF1] were treated with 2 μM 1M, or 100 ng/ml ActivinA (A) alone or in combination with 1M for 5 days. Expression of the endoderm markers FoxA2 and HNF4α was analysed by immunofluorescence. The number of percent positive cells averaged from 3 fields of view +/−SD are indicated. Scale bar represents 50 μm. (E) ESCs [SHEF1] were treated with 2 μM 1M, or 100 ng/ml ActivinA (A) alone or in combination with 1M for 5 days. Expression of the DE marker CXCR4 was alaysed by flow cytometry.
ESCs were cultured on Matrigel®-coated lummox (Greiner Bio One) trays and fixed with 4% paraformaldehyde (PFA) for 20 minutes at room temperature. Cells were permeabilised in PBST (with 0.1% Triton X-100) and blocked in 10% blocking reagent (Roche) before incubating with primary antibodies in 2% blocking reagent overnight at 4° C. After washing in PBS, cells were incubated with FITC-conjugated secondary antibodies (Vector Labs) for 3 hours at room temperature. After further washing, the cells were stained with 4,6-diamidino-2-phenylindole (DAPI) (SIGMA), washed again and mounted in MOWIOL. The following antibodies and dilutions were used: goat-anti-FoxA2 (1:100, R&D. Systems), mouse anti-Sox17 (1:50, R&D Systems), rabbit anti-HNF4α (1:100, Santa Cruz), rabbit anti-AFP (1:100, DAKO), rabbit anti-TTR (1:100, DAKO). Images were captured on a Zeiss 510 Meta confocal microscope using a 40× objective.

In test [2] the test system is ESCs [SHEF1]. Briefly: RT-PCR of Activin/Nodal pathway and differentiation marker genes. Format: cell-based, human. Conditions: 2 μM, after 1 day, maintained up to 3 days, basal by day 7. How it is done: as §1
Total RNA was isolated and purified using TRIzol Reagent (Invitrogen), following the manufacturer's instructions. All RNA samples were treated with DNase I (Ambion) before cDNA synthesis to eliminate any contaminating genomic DNA. RNA (1 μg) was reverse transcribed into cDNA using Oligo(dT)15 (Promega) and SuperScript II (Invitrogen). Gene-specific PCR was carried out using primers and annealing temperatures outlined in Table 2.

In test [3] the test system is ESCs [SHEF1]. Briefly: Flow cytometry of the DE marker CXCR4. Conditions: 2 μM 1M, 100 ng/ml Activin A, alone or in combination, 5 days. It is filed as cell-based, human. The protocol: as §1
ESCs were trypsinised (0.05% Trypsin-EDTA) for 10 minutes at 37° C. and resuspended in PBS containing 2% (v/v) FBS (FBS/PBS). […] Flow cytometry was performed using a FACSCanto cytometer (Becton Dickenson) and the data were analysed with FACSDiva software. […]
A general note: In flow cytometry, cells or beads pass a laser one at a time.

The test system of a further test is GSK-3. As to the kind of experiment: Phospho-β-catenin immunoblot and TOPFlash luciferase reporter assay in human ESCs. It is filed as cell-based. Conditions: 30 min (immunoblot) or 24 hr (TOPFlash). The protocol:
(A) ESCs [SHEF3] were cultured on MEFs or on Matrigel® in mTeSR1® media and treated with BIO or 1M for 30 min. Protein extracts were prepared and immunoblotting was performed using antibodies detecting the phosphorylated form of […]. The same immunoblot in each case was reprobed for total β-catenin to assess loading. (B) TOPFlash luciferase reporter assay of ESCs [SHEF1] treated for 24 hr with BIO or 1M at the indicated concentrations. Luciferase activity is expressed as a fold increase in activation compared with the normalised TOPFlash luciferase activity in untreated (Con) cells. Data represent the mean+/−SEM of 3 independent experiments.
Cell lysates (20 μg) were prepared, separated by SDS-PAGE and transferred to nitrocellulose as described previously (Welham et al., 1994). […] Images were captured and analysed using the ImageQuant RT ECL system (GE Healthcare). […]
The TOPFlash luciferase reporter plasmid (containing four consensus TCF binding sites upstream of the c-fos minimal promoter, driving expression of a firefly luciferase reporter) and its negative control plasmid FOPFlash (containing four mutant TCF binding sites) were provided by Dr C. […] Cell extracts were prepared and firefly and Renilla luciferase activities were determined using the dual-luciferase reporter assay system according to the manufacturer's instructions (Promega). […]
Background: Immunoblotting shows a protein as a band on a membrane.

The structures appear in SMILES notation.

Regarding `O=C1NC(=O)C2=C1c1cn(c3ccccc13)CCOCCOCCOCCOCCn1cc2c2ccccc21` [1M], in the test on ESCs [SHEF1] [1] (2 μM 1M or 100 ng/ml Activin A), the “FOXA2 expressing cells in the entire population” value is listed as 35-40% and the HNF4α-expressing cells is recorded as 20%. In addition, in the test on ESCs [SHEF1] [1] (2 μM, within clusters), the “FoxA2 positive cells in clusters of cells” value amounted to 73%. The NODAL gene expression result with ESCs [SHEF1] [2] is on record as “increase in NODAL gene expression”. Moreover, the “CXCR4 expression by flow cytometry” value in the test with ESCs [SHEF1] [3] is listed as 53.0%. Also, the “GSK-3-mediated signaling (β-catenin phosphorylation, TOPFlash activity)” value in the test with GSK-3 was “inhibits GSK-3-mediated signaling”.

(Values after patent publication US8815590B2, “Composition and method for differentiation of human embryonic stem cells” (Stem Cells for Safer Medicines Limited, priority 2009, dated 2014).)
